Assay results reported in patent publication US20110160223A1, “NMDA Receptor Antagonists for the Treatment of Neuropsychiatric Disorders” (priority 2008, published 2011).
pIC50, pKi: −log10 of the molar value. Like-named read-outs stand apart in the source and are kept apart here.

Key:
[1] = target: NMDA receptor (NR1 + NR2 subunits) (Rattus norvegicus, UniProt P35439+Q00960); assay: Two electrode voltage clamp recording from Xenopus laevis oocytes (pH dependence of NMDA antagonism); format: cell-based; details: Table 22
Sequence of NMDA receptor (NR1 + NR2 subunits) (Q00960 27-1482, other chains not shown): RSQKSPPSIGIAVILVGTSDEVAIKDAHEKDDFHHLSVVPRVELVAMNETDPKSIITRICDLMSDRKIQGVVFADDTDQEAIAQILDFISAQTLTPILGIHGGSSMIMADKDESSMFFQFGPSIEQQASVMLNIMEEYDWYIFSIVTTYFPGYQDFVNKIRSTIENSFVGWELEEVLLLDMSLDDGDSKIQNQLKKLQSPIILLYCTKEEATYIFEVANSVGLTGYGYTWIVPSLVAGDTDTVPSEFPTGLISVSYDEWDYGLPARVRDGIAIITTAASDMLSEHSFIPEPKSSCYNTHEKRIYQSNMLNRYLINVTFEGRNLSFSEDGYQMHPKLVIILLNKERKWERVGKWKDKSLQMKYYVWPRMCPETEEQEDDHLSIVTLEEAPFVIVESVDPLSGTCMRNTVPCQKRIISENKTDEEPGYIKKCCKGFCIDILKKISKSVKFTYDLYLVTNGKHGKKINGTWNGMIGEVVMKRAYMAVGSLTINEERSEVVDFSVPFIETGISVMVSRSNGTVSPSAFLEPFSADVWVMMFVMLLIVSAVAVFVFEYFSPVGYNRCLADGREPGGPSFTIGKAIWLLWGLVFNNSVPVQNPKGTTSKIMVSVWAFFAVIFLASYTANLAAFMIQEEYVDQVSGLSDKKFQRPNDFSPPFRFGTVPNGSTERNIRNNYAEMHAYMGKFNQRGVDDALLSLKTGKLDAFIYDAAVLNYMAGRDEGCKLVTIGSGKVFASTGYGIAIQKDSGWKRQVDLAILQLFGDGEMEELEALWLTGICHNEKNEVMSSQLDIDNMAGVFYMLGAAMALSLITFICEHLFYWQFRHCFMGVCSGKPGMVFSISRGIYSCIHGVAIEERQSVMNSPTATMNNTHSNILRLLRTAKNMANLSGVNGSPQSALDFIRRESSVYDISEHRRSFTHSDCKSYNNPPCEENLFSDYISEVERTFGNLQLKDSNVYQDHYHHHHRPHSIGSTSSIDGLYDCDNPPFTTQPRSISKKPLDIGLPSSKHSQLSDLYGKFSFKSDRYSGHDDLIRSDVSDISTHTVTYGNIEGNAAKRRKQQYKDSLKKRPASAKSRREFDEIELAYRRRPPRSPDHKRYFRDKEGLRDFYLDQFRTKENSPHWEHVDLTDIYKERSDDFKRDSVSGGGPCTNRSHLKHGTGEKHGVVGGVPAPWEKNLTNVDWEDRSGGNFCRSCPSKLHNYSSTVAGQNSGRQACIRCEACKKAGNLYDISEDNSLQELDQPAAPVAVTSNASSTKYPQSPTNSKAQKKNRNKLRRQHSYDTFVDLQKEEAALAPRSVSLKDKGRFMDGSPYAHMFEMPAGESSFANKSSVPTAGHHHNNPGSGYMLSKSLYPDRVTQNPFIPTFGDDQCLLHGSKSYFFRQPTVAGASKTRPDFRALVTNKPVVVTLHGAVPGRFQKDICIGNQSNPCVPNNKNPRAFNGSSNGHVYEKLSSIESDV
Protocol: cRNA was synthesized from linearized template cDNA for rat glutamate receptor subunits according to manufacturer specifications (Ambion). Quality of synthesized cRNA was assessed by gel electrophoresis, and quantity was estimated by spectroscopy and gel electrophoresis. Stage V and VI oocytes were surgically removed from the ovaries of large, well-fed and healthy Xenopus laevis anesthetized with 3-amino-benzoic acid ethyl ester (3 gm/l) as previously described. Clusters of isolated oocytes were incubated with 292 U/ml Worthington (Freehold, N.J.) type IV collagenase or 1.3 mg/ml collagenase (Life Technologies, Gaithersburg, Md.; 17018-029) for 2 hr in Ca^2+-free solution comprised of (in mM) 115 NaCl, 2.5 KCl, and 10 HEPES, pH 7.5, with slow agitation to remove the follicular cell layer. Oocytes were then washed extensively in the same solution supplemented with 1.8 mM CaCl2 and maintained in Barth's solution comprised of (in mM): 88 NaCl, 1 KCl, 2.4 NaHCO3, 10 HEPES, 0.82 MgSO4, 0.33 Ca(NO3)2, and 0.91 CaCl2 and supplemented with 100 μg/ml gentamycin, 10 μg/ml streptomycin, and 10 μg/ml penicillin. Oocytes were manually defolliculated and injected within 24 hrs of isolation with 3-5 ng of NR1 subunit cRNA and 7-10 ng of NR2 cRNA subunit in a 50 nl volume, or 5-10 ng of AMPA or kainate receptor cRNAs in a 50 nl volume, and incubated in Barth's solution at 18° C. for 1-7 d. Glass injection pipettes had tip sizes ranging from 10-20 microns, and were backfilled with mineral oil.
Two electrode voltage-clamp recordings were made 2-7 days post-injection as previously described. Oocytes were placed in a dual-track plexiglass recording chamber with a single perfusion line that splits in a Y-configuration to perfuse two oocytes. Dual recordings were made at room temperature (23° C.) using two Warner OC725B two-electrode voltage clamp amplifiers, arranged as recommended by the manufacturer. Glass microelectrodes (1-10 Megaohms) were filled with 300 mM KCl (voltage electrode) or 3 M KCl (current electrode). The bath clamps communicated across silver chloride wires placed into each side of the recording chamber, both of which were assumed to be at a reference potential of 0 mV. Oocytes were perfused with a solution comprised of (in mM) 90 NaCl, 1 KCl, 10 HEPES, and 0.5 BaCl2; pH was adjusted by addition of 1-3 M NaOH of HCl. Oocytes were recorded under voltage clamp at −40 mV. Final concentrations for control application of glutamate (50 μM) plus glycine (30 μM) were achieved by adding appropriate volumes from 100 and 30 mM stock solutions, respectively. In addition, 10 μM final EDTA was obtained by adding a 1:1000 dilution of 10 mM EDTA, in order to chelate contaminant divalent ions such as Zn^2+. Concentration-response curves for experimental compounds were obtained by applying in successive fashion maximal glutamate/glycine, followed by glutamate/glycine plus variable concentrations of experimental compounds. Dose response curves consisting of 4 to 8 concentrations were obtained in this manner. The baseline leak current at −40 mV was measured before and after recording, and the full recording linearly corrected for any change in leak current. Oocytes with glutamate-evoked responses smaller than 50 nA were not included in the analysis. The level of inhibition by applied experimental compounds was expressed as a percent of the initial glutamate response, and averaged together across oocytes from a single frog. Each experiment consisted of recordings from 3 to 10 oocytes obtained from a single frog. Results from 3-6 experiments were pooled, and the average percent responses at antagonist concentrations were fitted by the equation,
Percent Response=(100−minimum)/(1+([conc]/IC50)^nH)+minimum […]

[2] = target: T1, human ether-a-go-go potassium channel (hERG) expressed in HEK293 cells (Homo sapiens, UniProt Q12809); assay: hERG binding by displacement of 3[H]-astemizole; details: 3[H]-astemizole displacement; Ki from IC50 by Cheng and Prusoff
T1 construct: expressed in transfected cells; host or cells: HEK293
T1 sequence (Q12809 whole entry): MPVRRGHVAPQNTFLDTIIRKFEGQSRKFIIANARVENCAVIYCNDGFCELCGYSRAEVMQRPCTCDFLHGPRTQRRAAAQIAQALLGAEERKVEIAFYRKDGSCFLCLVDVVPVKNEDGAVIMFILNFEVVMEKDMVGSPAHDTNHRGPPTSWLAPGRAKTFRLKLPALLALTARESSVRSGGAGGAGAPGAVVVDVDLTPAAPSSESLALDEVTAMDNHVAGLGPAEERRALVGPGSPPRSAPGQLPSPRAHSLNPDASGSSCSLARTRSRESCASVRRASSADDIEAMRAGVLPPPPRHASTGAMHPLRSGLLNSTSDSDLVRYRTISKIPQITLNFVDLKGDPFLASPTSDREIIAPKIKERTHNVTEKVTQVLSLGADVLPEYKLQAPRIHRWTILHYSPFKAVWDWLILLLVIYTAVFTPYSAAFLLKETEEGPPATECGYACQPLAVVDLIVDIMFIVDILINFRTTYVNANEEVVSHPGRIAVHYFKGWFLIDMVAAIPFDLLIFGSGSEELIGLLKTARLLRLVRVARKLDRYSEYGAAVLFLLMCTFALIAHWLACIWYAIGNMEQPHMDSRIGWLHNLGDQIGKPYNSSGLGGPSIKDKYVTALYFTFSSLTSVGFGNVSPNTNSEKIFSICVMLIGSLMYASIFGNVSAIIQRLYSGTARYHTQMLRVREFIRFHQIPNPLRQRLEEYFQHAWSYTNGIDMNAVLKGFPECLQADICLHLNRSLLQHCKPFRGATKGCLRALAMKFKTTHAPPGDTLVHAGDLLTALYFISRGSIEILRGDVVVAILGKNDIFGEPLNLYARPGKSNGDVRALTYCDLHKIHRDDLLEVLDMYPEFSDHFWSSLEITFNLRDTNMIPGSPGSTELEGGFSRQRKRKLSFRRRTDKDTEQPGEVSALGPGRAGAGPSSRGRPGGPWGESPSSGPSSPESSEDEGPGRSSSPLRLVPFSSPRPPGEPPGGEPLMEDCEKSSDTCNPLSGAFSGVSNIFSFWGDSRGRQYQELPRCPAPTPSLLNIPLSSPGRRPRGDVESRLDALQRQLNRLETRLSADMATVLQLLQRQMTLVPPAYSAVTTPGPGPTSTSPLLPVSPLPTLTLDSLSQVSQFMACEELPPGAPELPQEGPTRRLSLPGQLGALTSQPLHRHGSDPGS
Protocol: Compounds were evaluated for binding to the human ether-a-go-go potassium channel (hERG) expressed in HEK293 cells by displacement of ^3[H]-astemizole according to the methods by Finlayson et al. (K. Finlayson., L. Turnbull, C. T. January, J. Sharkey, J. S. Kelly; ^3[H]Dofetilide binding to HERG transfected membranes: a potential high throughput preclinical screen. Eur. J. Pharmacol. 2001, 430, 147-148). Compounds were incubated at 1 or 10 μM final concentration, in duplicate, and the amount of displaced ^3[H]-astemizole determined by liquid scintillation spectroscopy. In some cases, a seven concentration (each concentration in duplicate) displacement curve was generated to determine an IC50.
(§1) Binding IC50 values were determined from displacement curves (four-six concentrations, each concentration in duplicate) fit by a non-linear, least squares, regression analysis using MathIQ (ID Business Solutions Ltd., UK). The binding Ki's were determined from the IC50 according to the method of Cheng and Prusoff (Y. Cheng and W. H. Prusoff; Relationship between the inhibition constant (K1) and the concentration of inhibitor which causes 50 percent inhibition (IC50) of an enzymatic reaction. Biochem. Pharmacol. 1973, 22: 3099-3108).

[3] = target: rat alpha-1 adrenergic receptor in rat brain membranes; assay: alpha-1 adrenergic receptor binding by displacement of 3[H]-prazosin; details: 3[H]-prazosin displacement, read-out: α1 IC50
Protocol: Binding to the rat alpha-1 adrenergic receptor in rat brain membranes was determined by displacement of ^3[H]-prazosin (P. Greengrass and R. Bremner; Binding characteristics of 3H-prazosin to rat brain a-adrenergic receptors. Eur. J. Pharmacol. 1979, 55: 323-326). Compounds were incubated at 0.3 or 3 μM final concentration, in duplicate, and the amount of displaced ^3[H]-prazosin determined by liquid scintillation spectroscopy.
as §1

| SMILES | pIC50 ([1]; pH 6.9, read-out: IC50 pH 6.9) | pIC50 ([1]; pH 7.6, read-out: IC50 pH 7.6) | pIC50 [3] | pKi [2] |
| --- | --- | --- | --- | --- |
| CS(=O)(=O)Nc1ccc(OC[C@@H](O)CN2CCN(c3ccc(Cl)cc3)CC2)cc1 | 7.49 | 6.57 | 6.46 | 6.26 |
| O=c1[nH]c2ccc(OC[C@@H](O)CN3CCN(c4ccc(Cl)cc4)CC3)cc2o1 [drawing 776] | 7.29 | 6.35 | 6.21 | 5.80 |
| NC(=O)Nc1ccc(OC[C@@H](O)CN2CCN(c3ccc(Cl)cc3)CC2)cc1 [drawing 778] | 7.34 | 6.34 | 6.47 | 4.89 |
| O=c1[nH]c2ccc(OC[C@@H](O)CN3CCN(c4ccc(Cl)cc4)CC3)cc2[nH]1 [drawing 781] | 7.85 | 6.99 | ~6.46 | ~5.12 |

Second part, led by results:

| pIC50 ([1]; pH 6.9, read-out: IC50 pH 6.9) | pIC50 ([1]; pH 7.6, read-out: IC50 pH 7.6) | pIC50 [3] | SMILES | pKi [2] |
| --- | --- | --- | --- | --- |
| 6.39 | 5.42 | ~6.52 | O[C@H](COc1ccc2[nH]ncc2c1)CN1CCN(c2ccc(Cl)cc2)CC1 | ~6.00 |
| 7.16 | 6.26 | ~6.46 | O=c1ccc2cc(OC[C@@H](O)CN3CCN(c4ccc(Cl)cc4)CC3)ccc2[nH]1 | ~5.12 |
| 6.43 | 7.54 | ~7.00 | O=C1Cc2cc(OC[C@@H](O)CN3CCN(c4ccc(Cl)cc4)CC3)ccc2N1 | ~5.00 |
| 7.80 | 7.12 | ~6.82 | O[C@H](COc1ccc2[nH]c(=S)[nH]c2c1)CN1CCN(c2ccc(Cl)cc2)CC1 | ~5.12 |
| 7.92 | 7.18 | ~7.00 | O=C1CCc2cc(OC[C@@H](O)CN3CCN(c4ccc(Cl)cc4)CC3)ccc2N1 | ~5.30 |
| 7.13 | 6.26 | 6.14 | Oc1ccc(OC[C@@H](O)CN2CCN(c3ccc(Cl)cc3)CC2)cc1 [drawing 775] | 4.41 |
